The record followed here is PubChem BioAssay AID292 (DTP/NCI, 2004).

“And” between values parts separate entries of the source, which are not always exact repeats. Equal values may be shown once. Toxic doses and inconclusive results are not listed.

For this experiment, the system named is B6C3F1 mice, ip Sarcoma M5076, median survival T/C. The experiment is described as follows: NCI In Vivo Anticancer Drug Screen. Data for tumor model Sarcoma M5076 (intraperitoneal) in B6C3F1 mice. To be noted: endpoint: median survival time, higher = longer survival. The protocol: The antitumor activity of compounds was measured in mice bearing transplantable tumors. Survival or tumor size were measured and the results are expressed as the measurement made in the treated group (T) divided by the measurement made in the vehicle treated control group (C). The tumor model used in this assay is Sarcoma M5076 (intraperitoneal) in B6C3F1 mice

Where [1] appears, read: dose: 10.0 mg/kg/injection, schedule: Q04DX004 (ip), vehicle: water.
Setting [2] is: dose: 75.0 mg/kg/injection, schedule: Q04DX004 (ip), vehicle: saline with Tween-80.
Setting [3] is: dose: 150.0 mg/kg/injection, schedule: Q04DX004 (ip), vehicle: saline with Tween-80.
The mark [4] stands for this setting: dose: 300.0 mg/kg/injection, schedule: Q04DX004 (ip), vehicle: saline with Tween-80.
The mark [5] stands for this setting: dose: 50.0 mg/kg/injection, schedule: Q04DX004 (ip), vehicle: saline with Tween-80.
Setting [6] is: dose: 100.0 mg/kg/injection, schedule: Q04DX004 (ip), vehicle: saline with Tween-80.
Where [7] appears, read: dose: 200.0 mg/kg/injection, schedule: Q04DX004 (ip), vehicle: saline with Tween-80.
Where [8] appears, read: dose: 400.0 mg/kg/injection, schedule: Q04DX004 (ip), vehicle: saline with Tween-80.
The mark [9] stands for this setting: dose: 25.0 mg/kg/injection, schedule: Q04DX004 (ip), vehicle: saline.
The mark [10] stands for this setting: dose: 600.0 mg/kg/injection, schedule: Q04DX004 (ip), vehicle: saline with Tween-80.

Take `COc1cccc2c1[C@H]1CO[C@H]3C4C[C@H](C(=O)O)C([C@@H](C2)N13)N4C` (stereo partly specified): the T/C is 98 % of control (dose: 0.62 mg/kg/injection, schedule: Q04DX004 (ip), vehicle: water); 100 % of control (dose: 1.25 mg/kg/injection, schedule: Q04DX004 (ip), vehicle: water); 102 % of control (dose: 2.5 mg/kg/injection, schedule: Q04DX004 (ip), vehicle: water); 109 % of control (dose: 5.0 mg/kg/injection, schedule: Q04DX004 (ip), vehicle: water); 118 % of control under setting [1].
Regarding `COc1ccc(-n2c(CSc3ccc(Cl)cc3)n[nH]c2=S)cc1`, the T/C reads like this: (dose: 37.5 mg/kg/injection, schedule: Q04DX004 (ip), vehicle: saline with Tween-80) 96 % of control; under setting [2], 101 % of control; under setting [3], 96 % of control; under setting [4], 87 % of control.
As to `C/C=C(\C)C(=O)OC1C(C)=C2C(C1OC(=O)CCCCC)C(C)(OC(C)=O)CC(OC(=O)CCC)C1(O)C2OC(=O)C1(C)O` (stereo unspecified), the T/C by setting is: (dose: 1.0 mg/kg/injection, schedule: Q04DX004 (ip), vehicle: Klucel (hydroxypropylcellulose) (HPC)) 97 % of control and 101 % of control; (dose: 2.0 mg/kg/injection, schedule: Q04DX004 (ip), vehicle: Klucel (hydroxypropylcellulose) (HPC)) 92 % of control and 101 % of control.
With `NNC(=O)c1ccc(OCc2nc3ccccc3[nH]2)cc1`, the T/C reads like this: (dose: 25.0 mg/kg/injection, schedule: Q04DX004 (ip), vehicle: saline with Tween-80) 99 % of control; under setting [5], 102 % of control; under setting [6], 101 % of control; under setting [7], 106 % of control; under setting [8], 97 % of control.
`COC(=O)Nc1cccc(-c2nc3ccc(NC(=O)OC)cc3c(=O)n2-c2ccccc2)c1`: the T/C (dose: 133.0 mg/kg/injection, schedule: Q04DX004 (ip), vehicle: Klucel (hydroxypropylcellulose) (HPC)) was 167 % of control.
Regarding `COc1ccccc1N=C1SCC(=O)N1Cc1ccco1`, the T/C runs as follows: under setting [5], 110 % of control; under setting [6], 122 % of control; under setting [7], 101 % of control; under setting [8], 98 % of control; (dose: 800.0 mg/kg/injection, schedule: Q04DX004 (ip), vehicle: saline with Tween-80) 102 % of control.
With `[Cl][Pt][Cl].[NH-]C(CO)C(=O)O` (stereo unspecified), the T/C by setting is: (dose: 12.5 mg/kg/injection, schedule: Q04DX004 (ip), vehicle: water) 97 % of control; (dose: 25.0 mg/kg/injection, schedule: Q04DX004 (ip), vehicle: water) 111 % of control; (dose: 50.0 mg/kg/injection, schedule: Q04DX004 (ip), vehicle: water) 111 % of control.
`Nc1ccn(C2OC(CO)C(O)C2O)c(=O)n1` (stereo unspecified): the T/C reads like this: (dose: 12.5 mg/kg/injection, schedule: Q01DX009 (ip), vehicle: saline) 150 % of control; (dose: 25.0 mg/kg/injection, schedule: Q01DX009 (ip), vehicle: saline) 162 % of control.
Regarding `CC(=O)NCCSSCc1ccccc1CS(=O)O`, the T/C reads like this: (dose: 25.0 mg/kg/injection, schedule: Q04DX004 (ip), vehicle: suspension in saline) 96 % of control; (dose: 50.0 mg/kg/injection, schedule: Q04DX004 (ip), vehicle: suspension in saline) 100 % of control; (dose: 100.0 mg/kg/injection, schedule: Q04DX004 (ip), vehicle: suspension in saline) 100 % of control; (dose: 200.0 mg/kg/injection, schedule: Q04DX004 (ip), vehicle: suspension in saline) 101 % of control; (dose: 400.0 mg/kg/injection, schedule: Q04DX004 (ip), vehicle: suspension in saline) 99 % of control.
Consider `OC1OCC(COc2ccc(Cl)cc2)OC1O` (stereo unspecified), for which the T/C by setting is: under setting [5], 103 % of control; under setting [6], 114 % of control; under setting [7], 93 % of control; under setting [8], 104 % of control.
With `COc1cc([C@@H]2c3cc4c(cc3[C@H](O)[C@H]3COC(=O)[C@H]23)OCO4)cc(OC)c1OC`, the T/C by setting is: (dose: 2.0 mg/kg/injection, schedule: Q04DX004 (ip), vehicle: saline with Tween-80) 117 % of control; (dose: 5.8 mg/kg/injection, schedule: Q04DX004 (ip), vehicle: saline with Tween-80) 117 % of control; (dose: 15.98 mg/kg/injection, schedule: Q04DX004 (ip), vehicle: saline with Tween-80) 154 % of control; (dose: 44.4 mg/kg/injection, schedule: Q04DX004 (ip), vehicle: saline with Tween-80) 151 % of control.
Turning to `COc1cc(NCc2ccc3nc(N)nc(N)c3c2C)cc(OC)c1OC` (tested in a mixture with another compound), the T/C under setting [1] was 108 % of control; the T/C (dose: 20.0 mg/kg/injection, schedule: Q04DX004 (ip), vehicle: water) is 112 % of control; the T/C (dose: 40.0 mg/kg/injection, schedule: Q04DX004 (ip), vehicle: water) is 117 % of control; the T/C (dose: 80.0 mg/kg/injection, schedule: Q04DX004 (ip), vehicle: water) was 115 % of control.
On to `NNC(=O)c1ccncc1`, for which the T/C is 102 % of control under setting [9]; 102 % of control (dose: 50.0 mg/kg/injection, schedule: Q04DX004 (ip), vehicle: saline); 95 % of control (dose: 100.0 mg/kg/injection, schedule: Q04DX004 (ip), vehicle: saline); 106 % of control (dose: 200.0 mg/kg/injection, schedule: Q04DX004 (ip), vehicle: saline).
Take `O=c1[nH]cc(F)c(=O)[nH]1`: the T/C is 104 % of control and 122 % of control (dose: 12.5 mg/kg/injection, schedule: Q04DX004 (ip), vehicle: saline); 111 % of control and 120 % of control under setting [9].
Consider `O=c1c(O)c(-c2cc(O)c(O)c(O)c2)oc2cc(O)cc(O)c12`, for which the T/C is 111 % of control under setting [2], 111 % of control under setting [3], 101 % of control under setting [4] and 99 % of control under setting [10].
In the case of `CC[C@@H](C)[C@@H]1NC(=O)C(NC(=O)C(CC(C)C)N(C)C(=O)C2CCCN2C(=O)C(C)O)C(C)OC(=O)C(Cc2ccc(OC)cc2)N(C)C(=O)C2CCCN2C(=O)C(CC(C)C)NC(=O)C(C)C(=O)C(C(C)C)OC(=O)C[C@H]1O` (stereo partly specified), the T/C reads like this: (dose: 0.13 mg/kg/injection, schedule: Q04DX004 (ip), vehicle: distilled water + alcohol) 120 % of control; (dose: 0.36 mg/kg/injection, schedule: Q04DX004 (ip), vehicle: distilled water + alcohol) 171 % of control; (dose: 0.6 mg/kg/injection, schedule: Q04DX004 (ip), vehicle: distilled water + alcohol) 209 % of control; (dose: 45.0 micrograms/kg/injection, schedule: Q04DX004 (ip), vehicle: distilled water + alcohol) 117 % of control; (dose: 90.0 micrograms/kg/injection, schedule: Q04DX004 (ip), vehicle: distilled water + alcohol) 115 % of control.
As for `CC1=CC(=NN=c2cc(C)n([O-])c(C)c2)C=C(C)[N+]1=O`, the T/C was 122 % of control under setting [6], 121 % of control under setting [7] and 98 % of control under setting [8].
As to `N#CC(=C1C=CC(=NO)C=C1)c1ccc(Cl)cc1`, the T/C under setting [10] is 96 % of control.
Consider `CCCCCCCCCCCC1NC(=S)NC(=O)C1C#N` (stereo unspecified), for which the T/C (dose: 50.0 mg/kg/injection, schedule: Q04DX004 (ip), vehicle: Klucel (hydroxypropylcellulose) (HPC)) was 91 % of control.
Take `CN=C(NC)c1ccc(NC(=O)/C=C\c2ccc(/C=C/C(=O)Nc3ccc(C(=NC)NC)cc3)cc2)cc1`: the T/C runs as follows: (dose: 3.12 mg/kg/injection, schedule: Q04DX004 (ip), vehicle: Klucel (hydroxypropylcellulose) (HPC)) 124 % of control; (dose: 3.75 mg/kg/injection, schedule: Q04DX004 (ip), vehicle: Klucel (hydroxypropylcellulose) (HPC)) 116 % of control; (dose: 6.25 mg/kg/injection, schedule: Q04DX004 (ip), vehicle: Klucel (hydroxypropylcellulose) (HPC)) 115 % of control; (dose: 10.42 mg/kg/injection, schedule: Q04DX004 (ip), vehicle: Klucel (hydroxypropylcellulose) (HPC)) 164 % of control; (dose: 17.37 mg/kg/injection, schedule: Q04DX004 (ip), vehicle: Klucel (hydroxypropylcellulose) (HPC)) 105 % of control.
Turning to `COc1ccc(C(C)c2cc3c(cc2OC)OCO3)cc1` (stereo unspecified), the T/C runs as follows: under setting [5], 115 % of control; under setting [7], 110 % of control.
Turning to `CC1=Nc2cc(N)nn2C(=O)C1`, the T/C reads like this: under setting [5], 96 % of control; under setting [6], 99 % of control.
As for `CC1OC2CC(O)C1(O)C1=C2C(O)=C(C(N)=O)C(=N)C1=O` (stereo unspecified), the T/C is, setting by setting: (dose: 1.25 mg/kg/injection, schedule: Q04DX004 (ip), vehicle: saline) 108 % of control; (dose: 2.5 mg/kg/injection, schedule: Q04DX004 (ip), vehicle: saline) 101 % of control; (dose: 5.0 mg/kg/injection, schedule: Q04DX004 (ip), vehicle: saline) 100 % of control.
